Entries after “also recorded” stand apart in the source; their conditions may differ.
Tests used:
Olfr177 = Olfr177 (Mus musculus, UniProt E9Q7W1); test: cAMP-dependent dual luciferase reporter assay, Olfr177 expressed in HEK293T cells; type: cell-based; details: for Olfr177 activation (cAMP response, Firefly:Renilla), in words: HEK293T cells expressing Olfr177; for EC50: HEK293T cells expressing Olfr177, Firefly:Renilla ratio, 4 h, dose response of at least 6 concentrations, read-out: EC50 for activation of Olfr177
Olfr177, sequence (E9Q7W1 entry or part of it): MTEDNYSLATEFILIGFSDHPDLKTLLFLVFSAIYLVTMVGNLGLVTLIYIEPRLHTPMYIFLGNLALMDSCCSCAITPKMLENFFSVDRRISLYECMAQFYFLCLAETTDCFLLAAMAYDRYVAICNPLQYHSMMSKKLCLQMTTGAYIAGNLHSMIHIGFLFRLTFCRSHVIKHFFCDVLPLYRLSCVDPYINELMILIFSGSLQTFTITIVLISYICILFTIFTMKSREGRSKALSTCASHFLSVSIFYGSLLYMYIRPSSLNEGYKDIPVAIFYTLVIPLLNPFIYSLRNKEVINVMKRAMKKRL
From the text: (§1) For ORs whose trafficking conditions could be established as described above, an unbiased ligand screen using a dual-luciferase reporter assay (Promega) was used to identify potential ligands. Briefly, ORs were transiently transfected (Lipofectamine 2000, Invitrogen) in triplicate into HEK293T cells along with constructs encoding for CREB-dependent luciferase (Firefly) and a constitutively expressed luciferase (Renilla), along with any accessory proteins previously established to be required for effective cell-surface trafficking. Additional surface labeling experiments were performed with the Firefly and Renilla constructs to ensure effective trafficking was not lost under these transfection conditions. OR activation leads to a rise in cAMP which drives an increase in Firefly luciferase expression. Firefly activity is normalized to the activity of the Renilla luciferase to control for variation in cell number and transfection efficiency. Data were collected using a FLUOstar Omega automated plate reader (BMG LabTech, Cary, NC, United States). Cells were allowed to incubate for at least 30 min in CD293 minimal media, and were then bathed with potential odorants diluted in minimal media for 4 h before measuring Firefly and Renilla-derived luminescence. Initially, screening was performed using odorant mixes that are grouped mainly by functional groups (BzB: nonanal, heptanal, valeraldehyde; BzC: carvone, eugenol, cinnamaldehyde; MA: amyl acetate, 3-octanone, acetophenone; OXLK: 2,3-butanedione, pyruvaldehyde, acetic acid, 1,2-ethanedithiol, 2-butanone; THI-DI: 1,6-hexanedithiol, 1,2-ethanedithiol, 2-methyl-1-propanethiol, 1,2-butanedithiol, 2,3-butanedithiol). These mixtures are known to elicit activation of a large number of olfactory sensory neurons and thus cover a wide range of ‘odorant space’ ([Pluznick et al., 2013]), followed by any known ligands to ORs in the same family as those being tested, as well as physiologically relevant substances. A complete list of chemicals used for screening is found in Supplementary Table 1 and all chemicals tested were obtained from Sigma or Fisher Scientific. To begin, all compounds screened were tested at a minimum of two concentrations (100–300 μm and 1–5 mM) to cover a wide range of potential activation. For each assay, Olfr78 or Olfr1393 and known activators of these receptors (Propionate and Cycloheptanol, respectively) were used as positive controls. In order to determine specific activation, potential activators of one receptor were also tested on at least one other OR simultaneously. Negative controls were performed with both media, and media containing DMSO. […] A significant rise in Firefly:Renilla over baseline was determined by multiple T-Tests ([…] deemed significant).

OR5K1 = system: OR5K1; set-up: method as in Wilkin Françoise et al., 2015; details: ref Wilkin Françoise et al., 2015; cited from earlier work
heme oxygenase = system: heme oxygenase; set-up: method as in Parra, 2012; details: hepatocellular carcinoma line (HepG2); ref Parra, 2012; cited from earlier work
phosphodiesterase = system: phosphodiesterase; set-up: method as in Parra, 2012; details: ref Parra, 2012; cited from earlier work
Olfr57 = Olfr57 (Mus musculus, UniProt Q8VGU7); test: cAMP-dependent dual luciferase reporter assay, Olfr57 expressed in HEK293T cells; type: cell-based; details: for EC50: HEK293T cells expressing Olfr57, Firefly:Renilla ratio, 4 h, dose response of at least 6 concentrations, read-out: EC50 for activation of Olfr57; for Olfr57 activation (cAMP-mediated response), in words: HEK293T cells expressing Olfr57
Olfr57, sequence (Q8VGU7 entry or part of it): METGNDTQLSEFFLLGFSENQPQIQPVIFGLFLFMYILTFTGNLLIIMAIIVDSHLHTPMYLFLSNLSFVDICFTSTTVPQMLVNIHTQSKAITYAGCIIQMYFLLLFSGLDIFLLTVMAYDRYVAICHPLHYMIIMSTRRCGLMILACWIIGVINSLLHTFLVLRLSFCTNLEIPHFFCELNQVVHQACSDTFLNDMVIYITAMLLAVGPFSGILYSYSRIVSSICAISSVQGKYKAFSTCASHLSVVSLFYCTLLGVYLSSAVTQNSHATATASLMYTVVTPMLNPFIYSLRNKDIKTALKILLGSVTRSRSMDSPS
From the text: as §1

CYP2A6 = system: CYP2A6; set-up: method as in Gyoubu and Miyazawa, 2007; Miyazawa and Gyoubu, 2007; details: ref Gyoubu and Miyazawa, 2007; cited from earlier work
Candida albicans = system: Candida albicans; set-up: method as in Manoharan et al., 2017; details: ref Manoharan et al., 2017; cited from earlier work
[1] = system: Olfr16 and its human homolog, OR10J5; set-up: method as in von der Weid et al., 2015; Tong et al., 2017; details: ref von der Weid et al., 2015; Tong et al., 2017; cited from earlier work
Olfr544 = system: Olfr544; set-up: method as in Abaffy et al., 2007; Kang et al., 2015; Thach et al., 2017; details: ref Abaffy et al., 2007; Kang et al., 2015; Thach et al., 2017; cited from earlier work
[2] = system: Olfr78 and its human homolog, OR51E2; set-up: method as in Pluznick et al., 2013; details: ref Pluznick et al., 2013; cited from earlier work
MOR139-1 = system: MOR139-1; set-up: method as in Hiroaki Matsunami, 2010; details: ref Hiroaki Matsunami, 2010; cited from earlier work

Cc1cnc(C)c(C)n1 [2,3,5-trimethylpyrazine]
Olfr177 activation (cAMP response, Firefly:Renilla), in words (Olfr177): failed to plateau

CCc1ncc(C)nc1C [2-ethyl-3,5-dimethylpyrazine]
Olfr177 activation (cAMP response, Firefly:Renilla), in words (Olfr177): significant increase | EC50 (Olfr177): 1070 µM | Activation of OR5K1 (OR5K1): activated | heme oxygenase activity (heme oxygenase): induced | phosphodiesterase activity (phosphodiesterase): inhibit

CCc1nccnc1C [2-ethyl-3-methylpyrazine]
EC50 (Olfr177): 1670 µM

CC12CCC(C1)C(C)(C)C2=O [(1R)-(-)-fenchone]
EC50 (Olfr57): 94 µM | metabolized in the liver by microsomal enzyme CYP2A6 (CYP2A6): metabolized | antibiofilm and antihyphal properties (Candida albicans): antibiofilm and antihyphal properties

CC(=O)c1ccccc1 [Acetophenone]
Activation of Olfr16 and OR10J5 [1]: activated

O=C(O)CCCCCCCC(=O)O [azelaic acid]
Activation of Olfr544 (Olfr544): activated

CC1(C)C2CCC1(C)C(O)C2 (centres unmarked) [borneol]
EC50 (Olfr57): 240 µM | antibiofilm and antihyphal properties (Candida albicans): antibiofilm and antihyphal properties

C=C1C2CCC(C2)C1(C)C (centres unmarked) [camphene]
Olfr57 activation (cAMP-mediated response), in words (Olfr57): did not elicit a cAMP-mediated response; also recorded: non-activators

CC1(C)C2CCC1(CS(=O)(=O)O)C(=O)C2 (centres unmarked) [camphorsulfonic acid]
Olfr57 activation (cAMP-mediated response), in words (Olfr57): did not elicit a cAMP-mediated response; also recorded: non-activators

CC12CCC(CC1)C(C)(C)O2 [eucalyptol]
EC50 (Olfr57): 234 µM

CC12CCC(C1)C(C)(C)C2O (centres unmarked) [fenchyl alcohol]
EC50 (Olfr57): 45 µM | antibiofilm and antihyphal properties (Candida albicans): antibiofilm and antihyphal properties

CC(C)(O)CCCC1=CCC(C=O)CC1 (centres unmarked) [lyral]
Activation of Olfr16 and OR10J5 [1]: activated

O=C1CC2CC[C@H]1C2 [norcamphor]
Olfr57 activation (cAMP-mediated response), in words (Olfr57): did not elicit a cAMP-mediated response; also recorded: non-activators

C=C1CCC2CC1C2(C)C (centres unmarked) [pinene]
Olfr57 activation (cAMP-mediated response), in words (Olfr57): did not elicit a cAMP-mediated response; also recorded: non-activators

c1cnccn1 [pyrazine]
Olfr177 activation (cAMP response, Firefly:Renilla), in words (Olfr177): did not elicit OR activation

CC(C)[C@]12CC(=O)[C@H](C)[C@H]1C2 [thujone]
Olfr57 activation (cAMP-mediated response), in words (Olfr57): did not elicit a cAMP-mediated response; also recorded: non-activators

CC1=CC[C@@]23CC1C(C)(C)[C@@H]2CC[C@H]3C [α-cedrene]
Activation of Olfr16 and OR10J5 [1]: activated

CC(=O)/C=C/C1=C(C)CCCC1(C)C [β-ionone]
Response of Olfr78 and OR51E2 [2]: respond

(1R)-(+)-camphor
Olfr57 activation (cAMP-mediated response), in words (Olfr57): weakly activate | Response of MOR139-1 (MOR139-1): respond | antibiofilm and antihyphal properties (Candida albicans): antibiofilm and antihyphal properties
